Assay [1] can be described thus: Antifungal activity against […] musarum at 1 mg/mL by disc diffusion method. Particulars: Gloeosporium.
Assay [2] concerns Glomerella cingulata. As to the kind of experiment: Antifungal activity against Glomerella cingulata at 1 mg/mL by disc diffusion method.
The test system of assay [3] is Phytophthora litchii. As to the kind of experiment: Antifungal activity against Peronophythora litchii at 1 mg/mL by disc diffusion method.
A short description of assay [4]: Antifungal activity against Glorosprium musarum at 1 ug/mL by disc diffusion method. Type of assay: functional. Particulars: Gloeosporium.

The structures appear in SMILES notation. The source made the active and inactive calls. No cut-off for these calls is given here.

Regarding `C[C@]12CC[C@H](O[C@@H]3O[C@H](CO)[C@@H](O)[C@H](O)[C@H]3O)[C@](C)(CO)[C@@H]1CC[C@]1(C)[C@@H]2CC[C@@H]2[C@@H]([C@]3(C(=O)O)C[C@H](O)[C@H](O)[C@](C)(CO)O3)CC[C@]21C`, the result in assay [1], in assay [2] and in assay [3] was inactive.

On to `CC1(C)O[C@](C(=O)O)([C@H]2CC[C@]3(C)[C@@H]2CC[C@@H]2[C@@]4(C)CC[C@H](O)[C@](C)(CO)[C@@H]4CC[C@]23C)C[C@H](O)[C@@H]1O`, for which the outcome in assay [1], in assay [2] and in assay [3] was inactive.

In the case of `COC(=O)Nc1nc2ccccc2[nH]1` [CARBENDAZIM], the inhibition zone (IZ) in assay [4] stood at 4 mm.

As to `CC1(C)O[C@](C(=O)O)([C@H]2CC[C@]3(C)[C@@H]2CC[C@@H]2[C@@]4(C)CC[C@H](O[C@@H]5O[C@H](CO)[C@@H](O)[C@H](O)[C@H]5O[C@@H]5O[C@H](CO)[C@@H](O)[C@H](O)[C@H]5O)[C@](C)(CO)[C@@H]4CC[C@]23C)C[C@H](O)[C@@H]1O`, the outcome in assay [1], in assay [2] and in assay [3] was inactive.

On to `CC1(C)O[C@](C(=O)O)([C@H]2CC[C@]3(C)[C@@H]2CC[C@@H]2[C@@]4(C)CC[C@H](O[C@@H]5O[C@H](CO)[C@@H](O)[C@H](O)[C@H]5O)[C@](C)(CO[C@@H]5O[C@H](CO)[C@@H](O)[C@H](O)[C@H]5O)[C@@H]4CC[C@]23C)C[C@H](O)[C@@H]1O` [GENTIRIGEOSIDE C], for which the outcome in assay [1] and in assay [3] was inactive.

On to `CC1(C)O[C@](C(=O)O)([C@H]2CC[C@]3(C)[C@@H]2CC[C@@H]2[C@@]4(C)CC[C@H](O[C@@H]5O[C@H](CO)[C@@H](O)[C@H](O)[C@H]5O[C@@H]5O[C@H](CO)[C@@H](O)[C@H](O)[C@H]5O)C(C)(C)[C@@H]4CC[C@]23C)C[C@H](O)[C@@H]1O` [GENTIRIGEOSIDE E], for which the outcome in assay [1] and in assay [3] was inactive.

Regarding `CC1(C)O[C@](C(=O)O)([C@H]2CC[C@]3(C)[C@@H]2CC[C@@H]2[C@@]4(C)CC[C@H](O[C@@H]5O[C@H](CO)[C@@H](O)[C@H](O)[C@H]5O)[C@](C)(CO)[C@@H]4CC[C@]23C)C[C@H](O)[C@@H]1O` [GENTIRIGEOSIDE A], the outcome in assay [1] and in assay [3] was inactive.

For the origin of these results see ChEMBL document CHEMBL1147121, “Dammarane triterpenoids from the roots of Gentiana rigescens” (2007).
